Measurements reported in patent US5173498A, “Substituted 3-thia- and 3-oxa-alkylflavones, a process for their preparation, the use thereof, medicaments based on these compounds and intermediates” (Hoechst Aktiengesellschaft, priority 1990, dated 1992).

Key:
LDL = assay: Inhibition of Cu^2+-catalyzed LDL oxidation (increase in fluorescence at 430 nm); format: biochemical, pigs; details: Table I; 50% inhibition of fluorescence increase at 430 nm; 5 μM Cu^2+, 2 hours, 37° C., pH 7.4; LDL 0.1 mg protein/ml
Description: The method for testing the antioxidant action of the substances is based on the inhibition of the Cu^2+ -catalyzed oxidation of LDL by active compounds, the increase in fluorescence at 430 nm serving as a measure of the LDL oxidation (U.P. Steinbrecher, J. Biol. Chem. 262. 3603 (1987)).
Blood from freshly slaughtered pigs, which was collected in the presence of EDTA (1 mg/ml) and NaN3 (0.1 mg/ml) and then centrifuged for 20 min at 2,000×g and 4° C. in order to remove the cellular constituents, was used for isolation of the LDL. Stepwise ultracentrifuging of the plasma in NaCl/NaBr solutions having densities of d=1.019 and d=1.063 yielded the LDL fraction (R. J. Havel, H. A. Eder and J. H. Bragdon, J. Clin. Investig. 34, 1345 (1955)). In this method the samples were centrifuged in a 50.2 Ti fixed angle rotor (Beckman Instruments) in each case for 18 hours at 300,000×g and 17° C. In order to lower the EDTA concentration, the LDL fraction obtained in this way had to be subjected for 48 hours to two dialyses in 100 times the volume of a phosphate-buffered saline solution (160 mM NaCl, 10 mM NaH2 PO4) of pH 7.4 (U. P. Steinbrecher, J. L. Witztum, S. Parthasarathy and D. Steinberg, Arteriosclerosis 7, 135 (1987)).
For the oxidation tests, the LDL fraction, which was stored at 4° C., was diluted to 0.1 mg of protein/ml using the dialysis buffer of the abovementioned composition. 2.5 ml of this LDL solution were treated with 25 μl of ethanolic solution having various concentrations of the test substance and the samples were incubated in closed vessels under nitrogen for 1 hour at 37° C., in order initially to achieve an adequate incorporation of the substance in the LDL particles (L. R. McLean and K. A. Hagaman, Biochemistry 28, 321 (1989)). The maximum concentration of the test compounds was 10 μM in the test.
The oxidation of the LDL was effected by adding 12.5 μl of a 1 mM CuSO4 solution, i.e. 5 μM Cu^2+ in the test, and incubating for two hours at 37° C. in cell culture dishes open to the air. The controls contained 25 μl of pure ethanol. To determine the blank, analogously prepared LDL samples were treated with 12.5 μl of a solution of 1 mM CuSO4 and 40 mM EDTA and likewise incubated for 2 hours at 37° C.
After the end of the incubation, the fluorescence intensity emitted at 430 nm was determined in all samples using the excitation wavelength 365 nm (Perkin-Elmer type LS-3 spectrofluorimeter).
The IC50 values, i.e. those molar concentrations which, under the test conditions described, inhibit the increase in fluorescence by 50% (controls =100), were determined for comparison of the strength of action of the antioxidants. For this purpose the fluorescence measurement was carried out as a duplicate determination using, in each case, 5 to 6 different concentrations of the test substance. Plotting the percentage inhibition values on semi-logarithmic paper and graphic interpolation gave the corresponding IC50 (Table I). Vitamin E was used as comparison compound.

[1] = test system: cholesterol biosynthesis in HEP-G2 cells; assay: Suppression or inhibition of cholesterol biosynthesis in cell cultures of HEP-G2 cells; format: cell-based; details: Homo sapiens, HepG2, Table II, ^14C-cholesterol formed from ^14C-sodium acetate
Description: Monolayers of HEP-G2 cells in lipoprotein-free nutrient medium were preincubated with corresponding concentrations of the test substances for a certain time (e.g. 1 hour) and after addition of the labeled precursor, for example ^14 C-sodium acetate, the incubation was continued (e.g. 3 hours). After addition of an internal standard (^3 H-cholesterol), a portion of the cells was subjected to alkaline saponification. The lipids in the saponified cells were extracted with chloroform/methanol. After addition of carrier cholesterol, this lipid mixture was separated by preparative thin layer chromatography, the cholesterol band was isolated after rendering visible using iodine vapor and the amount of ^14 C-cholesterol formed from the ^14 C-precursor was determined by scintigraphy. Cell protein was determined in a aliquote portion of the cells, so that the amount of ^14 C-cholesterol formed per unit time per mg of cell protein can be calculated. By comparing this value with the amount of ^14 C-cholesterol which was formed per mg of cell protein and per unit time from a culture which was treated in the same way but free from test substance, the inhibitory effect of the particular test preparation on the cholesterol biosynthesis of HEP-G2 cell cultures was obtained. [drawing 12]
Using the method described above, for example, the following inhibitory values for the cholesterol biosynthesis (in HEP-G2 cells) were determined for the compounds according to the invention (the IC50 value in mole/liter is that concentration of the compound which effects a 50% inhibition of the cholesterol biosynthesis) (Tab. II).

Compound | IC50 (LDL) [nM] | IC50 [1] [nM]
CCCCCCCCCCCCSCc1c(-c2ccc(F)cc2)oc2cc(O)cc(O)c2c1=O [Example 9b] | 12000 | –
CCCCCCCCCCCCCCCCCCSCc1c(-c2ccc(F)cc2)oc2cc(O)cc(O)c2c1=O [Example 9d] | 8000 | –
CC(C)=CCC/C(C)=C/CC/C(C)=C/CSCc1c(-c2ccc(F)cc2)oc2cc(O)cc(O)c2c1=O [Example 9l] | – | 80
COc1ccc(-c2oc3cc(O)cc(O)c3c(=O)c2CSC/C=C(\C)CC/C=C(\C)CCC=C(C)C)cc1 [Example 9m] | – | 80

Further compounds by falling IC50 (LDL), results first:

IC50 (LDL) [nM] | Compound | IC50 [1] [nM]
4800 | Vitamin E [reference compound] | –
900 | C/C(=C\CSCc1c(-c2ccc(O)cc2)oc2cc(O)cc(O)c2c1=O)CCC[C@H](C)CCC[C@H](C)CCCC(C)C [Example 9i] | 9
330 | C/C(=C\CSCc1c(-c2ccc(F)cc2)oc2cc(O)cc(O)c2c1=O)CCC[C@H](C)CCC[C@H](C)CCCC(C)C [Example 9e] | 10
